Columns and labels:
[1] = system: HT-29 human colon cancer cells; test: HT-29 colon tumor growth in CD-1 nude mice; assay type: in vivo; details: SEQ ID NO:1 10 mg/kg every other day
Protocol: A. HT-29 human colon cancer cells (3×10^6 cells in 100 μl of PBS) were subcutaneously injected into the right flank of 6-7 weeks old female CD-1 nude mice. After the size of tumor reached an approximate volume of 50 mm^3, 4 days post tumor cell injection, SEQ ID NO:1 was administered by bolus infusion into the tail vein every other day at 10 mg/kg. Control animals received saline alone for the same period. Antitumor effect of SEQ ID NO:1 was further compared to that of mitomycin C alone or that of SEQ ID NO:1 in combination with mitomycin C. Mitomycin C was administered intravenously at days 4, 11 and 18 with a dose of 3.5 mg/kg/week, one hour after the treatments with SEQ ID NO:1. All treatments were stopped at day 22. A day after the last treatment, tumors were excised from the animals and their weights were measured (FIG. 13A). […] The delay in tumor growth achieved with SEQ.
B. HT-29 human colon cancer cells (3×10^6 cells in 100 μl of PBS) were subcutaneously injected into the right flank of 5-6 week old female CD-1 nude mice. After the size of tumor reached an approximate volume of 100 mm^3, 7 days post tumor cell injection, SEQ ID NO:1 was administered by bolus infusion into the tail vein every other day at 10 mg/kg. Control animals received saline alone for the same period. Antitumor effect of SEQ ID NO:1 was further compared to that of CPT-11 alone or that of SEQ ID NO:1 in combination with CPT-11. CPT-11 was administered intraperitoneally for 5 days in a row from day 7-12 with a dose of 20 mg/kg in 100 μl saline. All treatments were stopped at day 32. A day after the last treatment, tumors were excised from the animals and their weights were measured (FIG. 13B).

[2] = system: MDA-CDDP-S4 human in vivo-selected Cisplatin-resistant breast adenocarcinoma cells; test: Cisplatin-resistant breast adenocarcinoma MDA-CDDP-S4 growth in SCID mice; details: SCID mice, fat pad; SEQ ID NO:1 10 mg/kg every other day; Cisplatin 4 mg/kg, Taxol 10 mg/kg i.v. weekly for three weeks
Protocol: MDA-CDDP-S4 human in vivo-selected Cisplatin-resistant breast adenocarcinoma cells MDA231/CDDPs4) (4×10^6 cells in 100 μl of PBS) were injected into the fat pad (inside of right leg) of 6-7 weeks old female SCID mice. After the size of tumor reached an approximate volume of 100 mm^3, 7-9 days post tumor cell injection, SEQ ID NO:1 was administered by bolus infusion into the tail vein every other day at 10 mg/kg. Control animals received saline alone for the same period. Antitumor effect of SEQ ID NO:1 was further compared to that of Cisplatin or Taxol alone (FIG. 14A) and in combination as indicated in the FIGS. 14B, 14C and 14D. Cisplatin was administered intravenously once a week for three weeks at a dose of 4 mg/kg. Taxol was administered intravenously once a week for three weeks at a dose of 10 mg/kg. Antitumor activities were estimated by the inhibition of tumor volume, which was measured with caliper and each point represents mean tumor volume calculated from 10 animals per experimental group (FIG. 14C). At the end of the study animals were sacrificed, tumor weights taken and mean tumor weights are indicated. […] As expected, treatment with Cisplatin during the same period was ineffective against Cisplatin-resistant tumor.

[3] = system: MDA-MB435-To.1 human Taxol-resistant breast adenocarcinoma cells; test: Taxol-resistant breast adenocarcinoma MDA-MB435-To.1 growth in SCID mice; assay type: in vivo
Protocol: MDA-MB435-To.1 human Taxol-resistant breast adenocarcinoma cells (4×10^6 cells in 100 μl of PBS) were injected into the fat pad (inside of right leg) of 6-7 weeks old female SCD mice. After the size of tumor reached an approximate volume of 100 mm^3, 20 days post tumor cell injection, SEQ ID NO:1 was administered by bolus infusion into the tail vein every other day at 10 mg/kg 15 times. Control animals received saline alone for the same period. Antitumor effect of SEQ ID NO:1 was further compared to that of Cisplatin or Taxol alone (FIG. 15A). Cisplatin was administered intravenously once a week for four weeks at a dose of 4 mg/kg. Taxol was administered intravenously once a week for four weeks at a dose of 20 mg/kg. Antitumor activities were estimated by the inhibition of tumor volume, which was measured with caliper (FIG. 15B). Each point represents mean tumor volume calculated from 9-10 animals per experimental group. […] As expected, treatment with Taxol during the same period was ineffective against Taxol-resistant tumor.
MDA-MB435-To.1 human Taxol-resistant breast adenocarcinoma cells (4×10^6 cells in 100 μl of PBS) were injected into the fat pad (inside of right leg) of 6-7 weeks old female CB-17 SCID mice. After the size of tumor reached an approximate volume of 100 mm^3, 17 days post tumor cell injection, SEQ ID NO:1 was administered by bolus infusion into the tail vein every other day at 10 mg/kg. Control animals received saline alone for the same period. Antitumor effect of SEQ ID NO:1 was compared to that of Cisplatin alone and in combination. Cisplatin was administered intravenously once a week for four weeks at a dose of 4 mg/kg. Antitumor activities were estimated by the inhibition of tumor volume, which was measured with caliper (FIG. 15B). Each point represents mean tumor volume calculated from 10 animals per experimental group. At the end of the study the animals were sacrificed and tumors weighed (FIG. 15C).

[4] = system: Human taxol-resistant promyelocytic leukemia cells (HL-60); test: Taxol-resistant promyelocytic leukemia (HL-60) growth in SCID mice; assay type: in vivo; details: SEQ ID NO:1 10 mg/kg i.v. every other day, taxol 10 mg/kg i.p. once a week
Protocol: Human taxol-resistant promyelocytic leukemia cells (HL-60) (7×10^6 cells in 100 μl of PBS) were injected into the right flank of 6-7 weeks old female SCID mice. After the size of tumor reached an approximate volume of 100 mm^3, 10 days post tumor cell injection, SEQ ID NO:1 was administered by bolus infusion into the tail vein every other day at 10 mg/kg. Control animals received saline alone for the same period. The anti-tumor effect of SEQ ID NO:1 was further compared to that of taxol. Taxol was administered i.p. once a week at a dose of 10 mg/kg. Anti-tumor activity was estimated by the inhibition of tumor volume, which was measured with caliper (FIG. 17A). Each point represents mean tumor volume calculated from 10 animals per experimental group. In addition animals were sacrificed and tumor weights taken at the end of the study.

[5] = system: DU145 human prostatic cancer cells; test: DU145 prostate tumor growth in SCID mice; assay type: in vivo
Protocol: DU145 human prostatic cancer cells (1×10^7 cells in 100 μl of PBS) were subcutaneously injected into the right flank of 6-7 week old male SCID mice. After the size of the tumors reached an approximate volume of 50 mm^3, 13 days post tumor cell injection, SEQ ID NO:1 was administered by bolus infusion into the tail vein every other day at 10 mg/kg. Control animals received saline alone for the same period. Treatments lasted for 30 days thereafter. Antitumor activities were estimated by the inhibition of tumor volume, which was measured with a caliper on nine different occasions over 30-day period. Each point represents mean tumor volume calculated from 5 animals per experimental group.
In both experiments, DU145 human prostatic cancer cells (1×10^7 cells in 100 μl of PBS) were subcutaneously injected into the right flank of 6-7 weeks old male SCID mice. After the size of tumor reached an approximate volume of 50 mm^3, 13 (upper panel) or 11 (lower panel) days post tumor cell injection, SEQ ID NO:1 was administered by bolus infusion into the tail vein every other day at 10 mg/kg 15 times (upper panel) or 14 times (lower panel), respectively. Control animals received saline alone for the same period. Antitumor effect of SEQ ID NO:1 was further compared to that of mitoxantrone (novantrone®) alone or in combination. Mitoxantrone was administered intravenously once at the beginning of the treatments at a dose of 2 mg/kg (upper panel) or once a week for four weeks at a reduced dose of 0.8 mg/kg (lower panel). All treatments were stopped at day 42 (upper panel) or 38 (lower panel), respectively. A day after the last treatment, tumors were excised from the animals and their weights were measured.

[6] = first experiment, start 20 days post injection, SEQ ID NO:1 10 mg/kg 15 times, Cisplatin 4 mg/kg, Taxol 20 mg/kg weekly for four weeks

## CCc1c2c(nc3ccc(OC(=O)N4CCC(N5CCCCC5)CC4)cc13)-c1cc3c(c(=O)n1C2)COC(=O)[C@]3(O)CC [CPT-11, Irinotecan, reference compound]
[1]; FIG. 13B, CPT-11 20 mg/kg i.p. 5 days, stopped day 32
  tumor weight / tumor growth: inhibitory effects

## N.N.[Cl][Pt][Cl] [Cisplatin, reference compound]
[2]
  tumor weight / tumor growth: ineffective
[3]; [6]
  tumor weight / tumor growth: inhibitory effects
[3]; second experiment, CB-17 SCID mice, start 17 days post injection, SEQ ID NO:1 10 mg/kg every other day, Cisplatin 4 mg/kg weekly
  tumor weight / tumor growth: inhibitory effects

## CC(=O)O[C@H]1C(=O)[C@@]2(C)[C@H]([C@H](OC(=O)c3ccccc3)[C@]3(O)C[C@H](OC(=O)[C@H](O)[C@@H](NC(=O)c4ccccc4)c4ccccc4)C(C)=C1C3(C)C)[C@]1(OC(C)=O)CO[C@@H]1C[C@@H]2O [Taxol, Paclitaxel, reference compound]
[2]
  tumor weight / tumor growth: inhibitory effects
[4]
  tumor growth / tumor weight: no effect on tumor growth or weight
[3]; [6]
  tumor weight / tumor growth: ineffective

## CO[C@@]12[C@H](COC(N)=O)C3=C(C(=O)C(C)=C(N)C3=O)N1C[C@@H]1N[C@@H]12 [mitomycin C, reference compound]
[1]; FIG. 13A, mitomycin C 3.5 mg/kg/week i.v., stopped day 22
  tumor weight / tumor growth: inhibitory effects

## O=C1c2c(O)ccc(O)c2C(=O)c2c(NCCNCCO)ccc(NCCNCCO)c21 [mitoxantrone, reference compound]
[5]; lower panel FIG. 2, SEQ ID NO:1 10 mg/kg every other day 14 times, mitoxantrone 0.8 mg/kg once a week for four weeks
  tumor weight / tumor growth: delay of tumor growth
[5]; upper panel FIG. 2, SEQ ID NO:1 10 mg/kg every other day 15 times, mitoxantrone 2 mg/kg i.v. once, vs saline
  tumor weight / tumor growth: inhibitory effects
